# Assay results reported in patent publication US9783573B2, “IAP antagonists” (BRISTOL-MYERS SQUIBB COMPANY, priority 2012, dated 2017).
# Molecular target: His-BIR3 (241-356, XIAP) (Homo sapiens (Human), UniProt P98170)
# Test: XIAP-BIR3/SMAC Homogeneous Time Resolved Fluorescence (HTRF) Assay
# Assay type: binding
# Conditions: fluorescein labeled SMAC peptide
# Description: B. XIAP-BIR3/SMAC Homogeneous Time Resolved Fluorescence (HTRF) Assay
# (§1) Assays were performed in black, flat-bottom, 384-well plates.
row,Compound,IC50 [nM]
1,"CN[C@@H](C)C(=O)N[C@H](C(=O)N1Cc2cc(NC(=O)c3ccc(C(=O)N[C@H]4C[C@@H](C(=O)N[C@@H]5CCCc6ccccc65)N(C(=O)[C@@H](NC(=O)[C@H](C)NC)C(C)(C)C)C4)cc3)ccc2C[C@H]1C(=O)N[C@H](C)c1ccccc1F)C(C)(C)C [Example 11, N^1-((S)-2-((S)-3,3-Dimethyl-2-((S)-2-(methylamino)propanamido)butanoyl)-3-(((R)-1-(2-fluorophenyl)ethyl)carbamoyl)-1,2,3,4-tetrahydroisoquinolin-7-yl)-N^4-((3S,5S)-1-((S)-3,3-dimethyl-2-((S)-2-(methylamino)propanamido)butanoyl)-5-(((R)-1,2,3,4-tetrahydronaphthalen-1-yl)carbamoyl)pyrrolidin-3-yl)terephthalamide]",18

# Molecular target: N-His-Tb-BIR3 (241-356, XIAP) (Homo sapiens (Human), UniProt P98170)
# Test: biochemical
# Assay type: binding
# Conditions: fluoresceinated modified SMAC peptide, fluorescence polarization; read-out: XIAP BIR3 FPA IC50
row,Compound,IC50 [nM]
1,"CCN[C@@H](C)C(=O)N[C@H](C(=O)N[C@H](C(=O)N1Cc2cc(OCc3ccc(C(=O)N[C@H]4C[C@@H](C(=O)N[C@@H]5CCCc6ccccc65)N(C(=O)[C@@H](NC(=O)[C@H](C)NC)C(C)(C)C)C4)cc3)ccc2C[C@H]1C(=O)N[C@@H]1CCCc2ccccc21)C(C)(C)C)C(C)(C)C [Example 40, (S)-7-((4-(((3S,5S)-1-((S)-3,3-Dimethyl-2-((S)-2-(methylamino)propanamido)butanoyl)-5-(((R)-1,2,3,4-tetrahydronaphthalen-1-yl)carbamoyl)pyrrolidin-3-yl)carbamoyl)benzyl)oxy)-2-((S)-2-((S)-2-((S)-2-(ethylamino)propanamido)-3,3-dimethylbutanamido)-3,3-dimethylbutanoyl)-N-((R)-1,2,3,4-tetrahydronaphthalen-1-yl)-1,2,3,4-tetrahydroisoquinoline-3-carboxamide]",660
2,"CN[C@@H](C)C(=O)N[C@H](C(=O)N1Cc2ccc(OCc3ccc(C(=O)N[C@H]4C[C@@H](C(=O)N[C@@H]5CCCc6ccccc65)N(C(=O)[C@@H](NC(=O)[C@H](C)NC)C(C)(C)C)C4)cc3)cc2C[C@H]1C(=O)N[C@@H]1CCCc2ccccc21)C(C)(C)C [Example 41, (S)-2-((S)-3,3-Dimethyl-2-((S)-2-(methylamino)propanamido)butanoyl)-6-((4-(((3S,5S)-1-((S)-3,3-dimethyl-2-((S)-2-(methylamino)propanamido)butanoyl)-5-(((R)-1,2,3,4-tetrahydronaphthalen-1-yl)carbamoyl)pyrrolidin-3-yl)carbamoyl)benzyl)oxy)-N-((R)-1,2,3,4-tetrahydronaphthalen-1-yl)-1,2,3,4-tetrahydroisoquinoline-3-carboxamide]",65
3,"CN[C@@H](C)C(=O)N[C@H](C(=O)N1Cc2ccc(OCc3ccc(C(=O)N[C@H]4C[C@@H](C(=O)NC5CCCc6ccccc65)N(C(=O)[C@@H](NC(=O)[C@H](C)NC)C(C)(C)C)C4)cc3)cc2C[C@@H]1C(=O)NC1CCCc2ccccc21)C(C)(C)C (stereo partly drawn) [Example 42, (R)-2-((S)-3,3-Dimethyl-2-((S)-2-(methylamino)propanamido)butanoyl)-6-((4-(((3S,5S)-1-((S)-3,3-dimethyl-2-((5)-2-(methylamino)propanamido)butanoyl)-5-(((R)-1,2,3,4-tetrahydronaphthalen-1-yl)carbamoyl)pyrrolidin-3-yl)carbamoyl)benzyl)oxy)-N-((R)-1,2,3,4-tetrahydronaphthalen-1-yl)-1,2,3,4-tetrahydroisoquinoline-3-carboxamide]",240
4,CC[C@H](NC)C(=O)N[C@H](C(=O)N1Cc2cc(OCc3ccc(C(=O)N[C@H]4C[C@@H](C(=O)N[C@@H]5CCCc6ccccc65)N(C(=O)[C@@H](NC(=O)[C@H](C)NC)C(C)(C)C)C4)cc3)ccc2C[C@H]1C(=O)N[C@@H]1CCCc2ccccc21)C(C)(C)C [Example 43],130
5,"CN[C@@H](C)C(=O)N[C@H](C(=O)N1Cc2cc(OC(=O)c3ccc(C(=O)N[C@H]4C[C@@H](C(=O)N[C@@H]5CCCc6ccccc65)N(C(=O)[C@@H](NC(=O)[C@H](C)NC)C(C)(C)C)C4)cc3)ccc2C[C@H]1C(=O)N[C@@H]1CCCc2ccccc21)C(C)(C)C [Example 46, (S)-2-((S)-3,3-Dimethyl-2-((S)-2-(methylamino)propanamido)butanoyl)-3-(((R)-1,2,3,4-tetrahydronaphthalen-1-yl)carbamoyl)-1,2,3,4-tetrahydroisoquinolin-7-yl 4-(((3S,5S)-1-((S)-3,3-dimethyl-2-((S)-2-(methylamino)propanamido)butanoyl)-5-(((R)-1,2,3,4-tetrahydronaphthalen-1-yl)carbamoyl)pyrrolidin-3-yl)carbamoyl)benzoate]",69
6,"CN[C@@H](C)C(=O)N[C@H](C(=O)N1Cc2cc(NC(=O)c3ccc(CO[C@H]4C[C@@H](C(=O)N[C@@H]5CCCc6ccccc65)N(C(=O)[C@@H](NC(=O)[C@H](C)NC)C(C)(C)C)C4)cc3)ccc2C[C@H]1C(=O)N[C@@H]1CCCc2ccccc21)C(C)(C)C [Example 47, (S)-2-((S)-3,3-Dimethyl-2-((S)-2-(methylamino)propanamido)butanoyl)-7-(4-((((3S,5S)-1-((S)-3,3-dimethyl-2-((S)-2-(methylamino)propanamido)butanoyl)-5-(((R)-1,2,3,4-tetrahydronaphthalen-1-yl)carbamoyl)pyrrolidin-3-yl)oxy)methyl)benzamido)-N—((R)-1,2,3,4-tetrahydronaphthalen-1-yl)-1,2,3,4-tetrahydroisoquinoline-3-carboxamide]",67
7,"CN[C@@H](C)C(=O)N[C@H](C(=O)N1Cc2cc(OC(=O)c3ccc(CO[C@H]4C[C@@H](C(=O)N[C@@H]5CCCc6ccccc65)N(C(=O)[C@@H](NC(=O)[C@H](C)NC)C(C)(C)C)C4)cc3)ccc2C[C@H]1C(=O)N[C@@H]1CCCc2ccccc21)C(C)(C)C [Example 48, (S)-2-((S)-3,3-Dimethyl-2-((S)-2-(methylamino)propanamido)butanoyl)-3-(((R)-1,2,3,4-tetrahydronaphthalen-1-yl)carbamoyl)-1,2,3,4-tetrahydroisoquinolin-7-yl 4-((((3S,5S)-1-((S)-3,3-dimethyl-2-((S)-2-(methylamino)propanamido)butanoyl)-5-(((R)-1,2,3,4-tetrahydronaphthalen-1-yl)carbamoyl)pyrrolidin-3-yl)oxy)methyl)benzoate]",92
8,"CN[C@@H](C)C(=O)N[C@H](C(=O)N1Cc2cc(NC(=O)c3ccc(CO[C@H]4C[C@@H](C(=O)N[C@@H]5CCCc6ccccc65)N(C(=O)[C@@H](NC(=O)[C@H](C)NC)C(C)(C)C)C4)cc3)ccc2C[C@H]1C(=O)N[C@H](C)c1ccccc1F)C(C)(C)C [Example 50, (S)-2-((S)-3,3-Dimethyl-2-((S)-2-(methylamino)propanamido)butanoyl)-7-(4-((((3S,5S)-1-((S)-3,3-dimethyl-2-((S)-2-(methylamino)propanamido)butanoyl)-5-(((R)-1,2,3,4-tetrahydronaphthalen-1-yl)carbamoyl)pyrrolidin-3-yl)oxy)methyl)benzamido)-N-((R)-1-(2-fluorophenyl)ethyl)-1,2,3,4-tetrahydroisoquinoline-3-carboxamide]",53
9,"CN[C@@H](C)C(=O)N[C@H](C(=O)N1Cc2cc(NC(=O)c3cccc(CO[C@H]4C[C@@H](C(=O)N[C@@H]5CCCc6ccccc65)N(C(=O)[C@@H](NC(=O)[C@H](C)NC)C(C)(C)C)C4)c3)ccc2C[C@H]1C(=O)N[C@@H]1CCCc2ccccc21)C(C)(C)C [Example 52, (S)-2-((S)-3,3-Dimethyl-2-((S)-2-(methylamino)propanamido)butanoyl)-7-(3-((((3S,5S)-1-((S)-3,3-dimethyl-2-((S)-2-(methylamino)propanamido)butanoyl)-5-(((R)-1,2,3,4-tetrahydronaphthalen-1-yl)carbamoyl)pyrrolidin-3-yl)oxy)methyl)benzamido)-N-((R)-1,2,3,4-tetrahydronaphthalen-1-yl)-1,2,3,4-tetrahydroisoquinoline-3-carboxamide]",42
10,"CN[C@@H](C)C(=O)N[C@H](C(=O)N1Cc2cc(NC(=O)c3ccc4ccn(C(=O)NC5C[C@@H](C(=O)NC6CCCc7ccccc76)N(C(=O)[C@@H](NC(=O)[C@H](C)NC)C(C)(C)C)C5)c4c3)ccc2C[C@H]1C(=O)NC1CCCc2ccccc21)C(C)(C)C (stereo partly drawn) [Example 53, N^6-((3S)-2-((S)-3,3-Dimethyl-2-((S)-2-(methylamino)propanamido)butanoyl)-3-((1,2,3,4-tetrahydronaphthalen-1-yl)carbamoyl)-1,2,3,4-tetrahydroisoquinolin-7-yl)-N^1-((5S)-1-((S)-3,3-dimethyl-2-((S)-2-(methylamino)propanamido)butanoyl)-5-((1,2,3,4-tetrahydronaphthalen-1-yl)carbamoyl)pyrrolidin-3-yl)-1H-indole-1,6-dicarboxamide]",140

# Molecular target: His-BIR2-3 (125-356, C202A/C213G, XIAP) (Homo sapiens (Human), UniProt P98170, C202A/C213G)
# Test: XIAP-BIR2-3 Dimeric SMAC Peptide Homogeneous Time Resolved Fluorescence (HTRF) Assay
# Assay type: binding
# Conditions: fluorescein labeled dimeric SMAC peptide
# Description: D. XIAP-BIR2-3 Dimeric SMAC Peptide Homogeneous Time Resolved Fluorescence (HTRF) Assay
# as §1
row,Compound,IC50 [nM]
1,"CN[C@@H](C)C(=O)N[C@H](C(=O)N1Cc2ccc(NC(=O)c3ccc(C(=O)N[C@H]4C[C@@H](C(=O)N[C@@H]5CCCc6ccccc65)N(C(=O)[C@@H](NC(=O)[C@H](C)NC)C(C)(C)C)C4)cc3)cc2C[C@H]1C(=O)N[C@@H]1CCCc2ccccc21)C(C)(C)C [Example 2, N^1—((S)-2-((S)-3,3-Dimethyl-2-((S)-2-(methylamino)propanamido)butanoyl)-3-(((R)-1,2,3,4-tetrahydronaphthalen-1-yl)carbamoyl)-1,2,3,4-tetrahydroisoquinolin-6-yl)-N^4-((3S,5S)-1-((S)-3,3-dimethyl-2-((S)-2-(methylamino)propanamido)butanoyl)-5-(((R)-1,2,3,4-tetrahydronaphthalen-1-yl)carbamoyl)pyrrolidin-3-yl)terephthalamide]",4
2,"CN[C@@H](C)C(=O)N[C@H](C(=O)N1Cc2cc(NC(=O)c3ccc(C(=O)N[C@H]4C[C@@H](C(=O)N[C@@H]5CCCc6ccccc65)N(C(=O)[C@@H](NC(=O)[C@H](C)NC)C(C)(C)C)C4)cc3)ccc2C[C@H]1C(=O)N[C@H](C)c1ccccc1F)C(C)(C)C [Example 11, N^1-((S)-2-((S)-3,3-Dimethyl-2-((S)-2-(methylamino)propanamido)butanoyl)-3-(((R)-1-(2-fluorophenyl)ethyl)carbamoyl)-1,2,3,4-tetrahydroisoquinolin-7-yl)-N^4-((3S,5S)-1-((S)-3,3-dimethyl-2-((S)-2-(methylamino)propanamido)butanoyl)-5-(((R)-1,2,3,4-tetrahydronaphthalen-1-yl)carbamoyl)pyrrolidin-3-yl)terephthalamide]",12
